One assay concerns the target Adenosine receptor A2a (Homo sapiens, UniProt P29274). Nature of the assay: DRUGMATRIX: Adenosine A2A radioligand binding (ligand: […]). It is filed as cell membranes, HEK293, Membrane. The conditions noted are these: Not Active = under 50% inhibition at 10 µM; for Ki: read-out: Ki.
Assay [1] addresses T1, Alpha-2A adrenergic receptor (Homo sapiens, UniProt P08913).
T1 sequence (P08913 whole entry): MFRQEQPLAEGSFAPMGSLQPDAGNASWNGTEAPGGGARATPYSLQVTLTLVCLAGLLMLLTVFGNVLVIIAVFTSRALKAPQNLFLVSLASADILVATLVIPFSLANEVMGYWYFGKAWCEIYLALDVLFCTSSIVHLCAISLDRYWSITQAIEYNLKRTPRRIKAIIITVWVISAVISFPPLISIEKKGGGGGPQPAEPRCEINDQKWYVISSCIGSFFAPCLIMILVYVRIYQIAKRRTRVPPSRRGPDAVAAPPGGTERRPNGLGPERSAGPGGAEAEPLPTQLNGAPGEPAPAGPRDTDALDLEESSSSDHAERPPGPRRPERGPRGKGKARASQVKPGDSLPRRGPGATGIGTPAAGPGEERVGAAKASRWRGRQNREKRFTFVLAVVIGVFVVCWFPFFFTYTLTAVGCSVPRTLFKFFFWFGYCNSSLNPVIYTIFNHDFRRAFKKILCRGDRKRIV
It is filed as cell membranes, Sf9, Membrane. The conditions noted are these: sf9.

For the next assay, the target named is Insulin receptor (Rattus norvegicus, UniProt P15127). In kind it is cell membranes, Wistar, Liver, Membrane. Note: in other assays of this panel Not Active means under 50% inhibition at 10 µM.
Insulin receptor, sequence (P15127 27-759 limits assumed): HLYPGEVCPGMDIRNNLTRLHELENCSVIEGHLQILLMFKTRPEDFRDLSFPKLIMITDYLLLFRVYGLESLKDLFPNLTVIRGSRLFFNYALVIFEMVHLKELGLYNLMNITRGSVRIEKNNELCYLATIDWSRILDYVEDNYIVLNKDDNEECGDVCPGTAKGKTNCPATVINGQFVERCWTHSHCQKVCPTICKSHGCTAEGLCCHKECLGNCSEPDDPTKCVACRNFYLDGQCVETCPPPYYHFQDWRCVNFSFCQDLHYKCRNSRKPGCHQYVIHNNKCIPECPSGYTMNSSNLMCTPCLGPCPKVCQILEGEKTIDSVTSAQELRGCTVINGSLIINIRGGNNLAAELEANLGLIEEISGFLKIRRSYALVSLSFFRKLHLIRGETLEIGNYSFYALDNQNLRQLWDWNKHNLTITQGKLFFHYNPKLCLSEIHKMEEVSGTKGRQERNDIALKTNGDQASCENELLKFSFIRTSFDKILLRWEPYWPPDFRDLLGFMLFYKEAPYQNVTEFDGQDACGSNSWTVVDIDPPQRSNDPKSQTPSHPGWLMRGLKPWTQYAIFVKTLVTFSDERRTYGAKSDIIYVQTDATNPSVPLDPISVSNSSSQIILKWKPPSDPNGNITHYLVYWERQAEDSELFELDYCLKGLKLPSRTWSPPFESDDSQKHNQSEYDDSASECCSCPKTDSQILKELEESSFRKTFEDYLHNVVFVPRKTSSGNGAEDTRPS
Insulin receptor, sequence (P15127 764-1383 limits assumed): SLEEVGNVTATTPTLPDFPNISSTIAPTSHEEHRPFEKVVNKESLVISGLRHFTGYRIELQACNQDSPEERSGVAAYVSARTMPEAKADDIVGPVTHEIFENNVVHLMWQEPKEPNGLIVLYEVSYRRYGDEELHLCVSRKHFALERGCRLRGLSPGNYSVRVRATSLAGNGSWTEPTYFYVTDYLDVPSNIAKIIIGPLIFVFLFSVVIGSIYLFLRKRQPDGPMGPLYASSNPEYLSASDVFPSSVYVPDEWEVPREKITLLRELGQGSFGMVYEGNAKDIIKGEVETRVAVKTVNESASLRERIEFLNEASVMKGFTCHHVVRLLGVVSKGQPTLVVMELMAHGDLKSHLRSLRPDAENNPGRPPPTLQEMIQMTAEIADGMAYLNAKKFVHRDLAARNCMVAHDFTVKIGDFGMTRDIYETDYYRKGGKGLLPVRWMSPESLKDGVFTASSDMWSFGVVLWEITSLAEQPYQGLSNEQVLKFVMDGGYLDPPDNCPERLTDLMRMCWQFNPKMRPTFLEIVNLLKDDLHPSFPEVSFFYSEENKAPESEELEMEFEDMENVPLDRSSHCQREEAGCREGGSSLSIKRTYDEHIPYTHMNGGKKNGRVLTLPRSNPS
Assay [2] is described as follows: DRUGMATRIX: beta-Lactamase enzyme inhibition (substrate: Nitrocefin). Also noted: species or system Bacillus cereus. The conditions noted are these: Not Active = under 50% inhibition at 10 µM.
The target in another assay is Histamine H2 receptor (Homo sapiens, UniProt P25021). In kind it is cell membranes, CHO-K1, Membrane. The conditions noted are these: cho-k1. Note: in other assays of this panel Not Active means under 50% inhibition at 10 µM.
Histamine H2 receptor, sequence (P25021 whole entry): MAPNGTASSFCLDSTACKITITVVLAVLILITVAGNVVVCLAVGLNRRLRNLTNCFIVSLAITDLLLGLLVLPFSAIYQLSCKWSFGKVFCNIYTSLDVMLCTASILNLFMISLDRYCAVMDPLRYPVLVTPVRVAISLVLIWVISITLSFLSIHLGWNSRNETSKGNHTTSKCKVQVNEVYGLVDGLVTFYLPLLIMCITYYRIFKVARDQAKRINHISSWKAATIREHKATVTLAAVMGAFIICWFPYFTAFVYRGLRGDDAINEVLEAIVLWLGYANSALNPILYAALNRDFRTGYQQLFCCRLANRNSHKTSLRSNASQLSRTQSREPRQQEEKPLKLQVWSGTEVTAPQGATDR
In a further assay the target is T2, Neutrophil elastase (Homo sapiens, UniProt P08246).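 Note: inhibition of neutrophil elastase enzyme activity, measured with a p-nitroanilide-linked peptide substrate; in other assays of this panel Not Active means under 50% inhibition at 10 µM.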
T2 sequence (P08246 whole entry): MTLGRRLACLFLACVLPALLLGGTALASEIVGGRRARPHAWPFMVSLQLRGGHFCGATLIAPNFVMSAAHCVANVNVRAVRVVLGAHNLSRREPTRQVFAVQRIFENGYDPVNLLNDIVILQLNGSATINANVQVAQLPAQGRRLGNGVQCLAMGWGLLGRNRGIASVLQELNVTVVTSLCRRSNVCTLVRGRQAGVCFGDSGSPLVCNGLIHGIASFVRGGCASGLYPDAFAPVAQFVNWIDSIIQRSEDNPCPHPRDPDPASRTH
In kind it is tissue-based.

Consider 20 compounds from ChEMBL document CHEMBL1909046, “DrugMatrix in vitro pharmacology data”.

Structures are written as SMILES.

Adenosine receptor A2a, sequence (P29274 whole entry): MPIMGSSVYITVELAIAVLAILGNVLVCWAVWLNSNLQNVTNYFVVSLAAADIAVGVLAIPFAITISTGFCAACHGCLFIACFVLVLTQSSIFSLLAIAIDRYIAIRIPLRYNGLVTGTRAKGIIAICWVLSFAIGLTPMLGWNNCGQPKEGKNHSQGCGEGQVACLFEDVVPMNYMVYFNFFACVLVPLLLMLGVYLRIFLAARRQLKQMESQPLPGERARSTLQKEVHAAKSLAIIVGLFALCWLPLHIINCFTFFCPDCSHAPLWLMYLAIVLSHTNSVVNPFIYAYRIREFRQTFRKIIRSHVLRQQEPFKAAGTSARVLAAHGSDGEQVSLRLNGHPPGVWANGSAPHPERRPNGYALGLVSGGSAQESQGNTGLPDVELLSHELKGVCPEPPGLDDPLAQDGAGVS

For `O=c1cc(N2CCOCC2)oc2c(-c3ccccc3)cccc12` [LY-294002], the IC50 entry (on Adenosine receptor A2a (hek293); in assay [1]; on Insulin receptor; in assay [2]; on Histamine H2 receptor; on Neutrophil elastase) was “Not Active” in each case. The Ki (commonly a dissociation constant, usually derived from enzyme kinetics or from competition with a known ligand) in assay [2] is reported as “Not Active”.
Take `COc1ccc2[nH]cc(CCNC(C)=O)c2c1` [MELATONIN]: the IC50 result (at Adenosine receptor A2a (hek293); in assay [1]; at Insulin receptor; in assay [2]; at Histamine H2 receptor; against Neutrophil elastase) was “Not Active” throughout. The Ki entry in assay [2] was “Not Active”.
`NC(=O)C[S+]([O-])C(c1ccccc1)c1ccccc1` (configuration not stated) [MODAFINIL]: the IC50 entry (at Adenosine receptor A2a (hek293); in assay [1]; against Insulin receptor; in assay [2]; against Histamine H2 receptor; against Neutrophil elastase) was “Not Active” each time. Besides, the Ki result in assay [2] was “Not Active”.
Consider `CCN(CC)CCOCCC1=CCC2CC1C2(C)C` (configuration not stated) [MYRTECAINE], for which the IC50 result (on Adenosine receptor A2a (hek293); in assay [1]; against Insulin receptor; in assay [2]; against Histamine H2 receptor; against Neutrophil elastase) was “Not Active” in each case. The Ki result in assay [2] is “Not Active”.
For the compound `O=C(O)c1cccnc1Nc1cccc(C(F)(F)F)c1` [NIFLUMIC ACID], the IC50 entry (at Adenosine receptor A2a (hek293); in assay [1]; against Insulin receptor; in assay [2]; against Histamine H2 receptor; at Neutrophil elastase) was “Not Active” throughout. For the same compound, the Ki entry in assay [2] is recorded as “Not Active”.
With `O=C(N/N=C/c1ccc([N+](=O)[O-])o1)c1cc([N+](=O)[O-])cc([N+](=O)[O-])c1O` [NIFURSOL], the IC50 result (on Adenosine receptor A2a (hek293); in assay [1]; at Insulin receptor; in assay [2]; against Histamine H2 receptor; on Neutrophil elastase) was “Not Active” each time. In assay [2], the Ki result is “Not Active”.
In the case of `COC(=O)Nc1nc2ccc(C(=O)c3cccs3)cc2[nH]1` [NOCODAZOLE], the IC50 (commonly the concentration at which inhibition is half-maximal) was 7510 nM on Adenosine receptor A2a (read-out: IC50); “Not Active” in assay [1]; “Not Active” against Insulin receptor; “Not Active” in assay [2]; “Not Active” against Histamine H2 receptor; “Not Active” on Neutrophil elastase. Moreover, the Ki at Adenosine receptor A2a is 4220 nM; in assay [2], “Not Active”.
For `C#CC1(O)CC[C@H]2[C@@H]3CCC4=CC(=O)CC[C@@H]4[C@H]3CC[C@@]21CC` (some centres not stated) [NORGESTREL], the IC50 entry (on Adenosine receptor A2a (hek293); in assay [1]; on Insulin receptor; in assay [2]; against Histamine H2 receptor; at Neutrophil elastase) was “Not Active” in each case. Moreover, the Ki entry in assay [2] is reported as “Not Active”.
On to `COC(=O)Nc1nc2ccc([S+]([O-])c3ccccc3)cc2[nH]1` (configuration not stated) [OXFENDAZOLE], for which the IC50 on Adenosine receptor A2a (read-out: IC50) was 1500 nM; in assay [1] it was “Not Active”; at Insulin receptor, “Not Active”; in assay [2] it was “Not Active”; on Histamine H2 receptor, “Not Active”; at Neutrophil elastase it was “Not Active”. Further, the Ki was 844 nM at Adenosine receptor A2a and “Not Active” in assay [2].
Consider `CC(=O)O[C@H]1C(=O)[C@@]2(C)[C@H]([C@H](OC(=O)c3ccccc3)[C@]3(O)C[C@H](OC(=O)[C@H](O)[C@@H](NC(=O)c4ccccc4)c4ccccc4)C(C)=C1C3(C)C)[C@]1(OC(C)=O)CO[C@@H]1C[C@@H]2O` [PACLITAXEL], for which the IC50 entry (at Adenosine receptor A2a (hek293); in assay [1]; on Insulin receptor; in assay [2]; at Histamine H2 receptor; against Neutrophil elastase) was “Not Active” in each case. For the same compound, in assay [2], the Ki entry was “Not Active”.
Turning to `C[n+]1ccc(-c2cc[n+](C)cc2)cc1.[Cl-].[Cl-]` [PARAQUAT DICHLORIDE], the IC50 result (on Adenosine receptor A2a (hek293); in assay [1]; at Insulin receptor; in assay [2]; against Histamine H2 receptor; on Neutrophil elastase) was “Not Active” in each case. Besides, the Ki result in assay [2] is “Not Active”.
As to `CC(C)NCC(O)COc1cccc2[nH]ccc12` (configuration not stated) [PINDOLOL], the IC50 result (on Adenosine receptor A2a (hek293); in assay [1]; against Insulin receptor; in assay [2]; against Histamine H2 receptor; at Neutrophil elastase) was “Not Active” each time. Besides, the Ki entry in assay [2] was “Not Active”.
With `CCn1cc(C(=O)O)c(=O)c2cnc(N3CCCC3)nc21` [PIROMIDIC ACID], the half-maximal inhibitory concentration (IC50) entry (at Adenosine receptor A2a (hek293); in assay [1]; against Insulin receptor; in assay [2]; at Histamine H2 receptor; against Neutrophil elastase) was “Not Active” in each case. The Ki result in assay [2] is “Not Active”.
With `C[n+]1ccccc1/C=N/O.[Cl-]` [PRALIDOXIME CHLORIDE], the IC50 entry (at Adenosine receptor A2a (hek293); in assay [1]; on Insulin receptor; in assay [2]; on Histamine H2 receptor; against Neutrophil elastase) was “Not Active” each time. The Ki entry in assay [2] was “Not Active”.
Consider `C[C@]12C=CC(=O)C=C1CC[C@@H]1[C@@H]2[C@@H](O)C[C@@]2(C)[C@H]1CC[C@]2(O)C(=O)CO` [PREDNISOLONE], for which the IC50 result (at Adenosine receptor A2a (hek293); in assay [1]; on Insulin receptor; in assay [2]; at Histamine H2 receptor; on Neutrophil elastase) was “Not Active” each time. The Ki entry in assay [2] is given as “Not Active”.
With `CC(=O)[C@H]1[C@H](C#N)C[C@H]2[C@@H]3CC=C4C[C@@H](O)CC[C@]4(C)[C@H]3CC[C@@]21C` [PREGNENOLONE CARBONITRILE], the IC50 result (at Adenosine receptor A2a (hek293); in assay [1]; on Insulin receptor; in assay [2]; against Histamine H2 receptor; on Neutrophil elastase) was “Not Active” each time. Further, the Ki entry in assay [2] is reported as “Not Active”.
For `CCCN(CCC)S(=O)(=O)c1ccc(C(=O)O)cc1` [PROBENECID], the IC50 result (at Adenosine receptor A2a (hek293); in assay [1]; against Insulin receptor; in assay [2]; on Histamine H2 receptor; at Neutrophil elastase) was “Not Active” in each case. Further, the Ki entry in assay [2] is on record as “Not Active”.
Turning to `CCCNCC(O)COc1ccccc1C(=O)CCc1ccccc1` (configuration not stated) [PROPAFENONE], the IC50 entry (at Adenosine receptor A2a (hek293); in assay [1]; on Insulin receptor; in assay [2]; against Histamine H2 receptor; against Neutrophil elastase) was “Not Active” throughout. The Ki entry in assay [2] was “Not Active”.
With `CCCOc1ccc(C(=O)OCCN(CC)CC)cc1N` [PROPARACAINE], the IC50 result (at Adenosine receptor A2a (hek293); in assay [1]; against Insulin receptor; in assay [2]; at Histamine H2 receptor; at Neutrophil elastase) was “Not Active” in each case. In assay [2], the Ki entry is “Not Active”.
Turning to `CC(C)c1cccc(C(C)C)c1O` [PROPOFOL], the IC50 result (at Adenosine receptor A2a (hek293); in assay [1]; at Insulin receptor; in assay [2]; on Histamine H2 receptor; against Neutrophil elastase) was “Not Active” each time. The Ki entry in assay [2] is “Not Active”.
